The values below come from article doi:10.1101/2025.07.02.662713v1, “A FRET-based high-throughput screening assay for the discovery of Mycobacterium tuberculosis DNA ADP-ribosylglycohydrolase DarG inhibitors” (biorxiv, 2025).

The target in assay [1] is T1, MtbDarG MD; CFP-MtbDarG MD (Mycobacterium tuberculosis, UniProt O53605).
T1 construct: gene darG
The assay is described as follows: FRET displacement of PARylated YFP-GAP. The class given is binding.

In a further assay the target is T2, PARP14 MD1 (Homo sapiens, UniProt Q460N5).
T2 construct: macrodomain 1 only, CFP fusion, produced as described earlier
T2 sequence (Q460N5 791-978 limits assumed): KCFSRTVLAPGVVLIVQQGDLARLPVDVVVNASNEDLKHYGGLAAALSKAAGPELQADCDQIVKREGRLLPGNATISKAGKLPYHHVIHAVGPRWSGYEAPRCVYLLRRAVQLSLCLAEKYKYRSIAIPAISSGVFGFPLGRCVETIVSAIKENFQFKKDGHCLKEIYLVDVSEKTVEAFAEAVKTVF
The assay is described as follows: FRET displacement of MARylated YFP-GAP. It counts as binding.

In assay [2] the target is T3, MtbDarG (hydrolysis assay) (Mycobacterium tuberculosis, UniProt O53605).
T3 construct: gene darG
The assay is described as follows: gel-based ADP-ribosyl-ssDNA hydrolysis assay. The class given is biochemical. The note with it: 1 µM hydrolase, pranlukast 2-250 µM, pre-incubation 10 min; Tris pH 7.5, 37 °C, 30 min.

Another assay deals with T4, PARP15 MD1 (Homo sapiens, UniProt Q460N3).
T4 construct: macrodomain 1 only, CFP fusion, produced as described earlier
T4 sequence (Q460N3 78-267 limits assumed): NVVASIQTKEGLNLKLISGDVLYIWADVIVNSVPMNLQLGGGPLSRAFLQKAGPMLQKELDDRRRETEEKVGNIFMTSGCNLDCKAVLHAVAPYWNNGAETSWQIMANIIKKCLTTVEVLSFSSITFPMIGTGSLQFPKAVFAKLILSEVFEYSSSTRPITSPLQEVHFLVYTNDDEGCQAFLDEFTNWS
In words: FRET displacement of MARylated YFP-GAP. It counts as binding.

The next assay deals with T5, T. aq. DarG; T.aq. DarG (Thermus aquaticus, UniProt P0DV57).
T5 construct: recombinant, prepared as previously published
T5 sequence (P0DV57 1-360): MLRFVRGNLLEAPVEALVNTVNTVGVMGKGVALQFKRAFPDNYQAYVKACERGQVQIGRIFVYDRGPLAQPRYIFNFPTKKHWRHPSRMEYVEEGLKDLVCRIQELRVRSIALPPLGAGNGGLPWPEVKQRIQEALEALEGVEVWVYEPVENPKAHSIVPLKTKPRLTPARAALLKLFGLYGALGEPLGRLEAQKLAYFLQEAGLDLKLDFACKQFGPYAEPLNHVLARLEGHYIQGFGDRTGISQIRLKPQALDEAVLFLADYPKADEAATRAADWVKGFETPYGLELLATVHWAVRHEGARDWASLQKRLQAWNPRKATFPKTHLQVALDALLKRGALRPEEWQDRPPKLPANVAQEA
The assay is described as follows: gel-based ADP-ribosyl-ssDNA hydrolysis assay. The class given is biochemical. Particulars: 1 µM hydrolase, pranlukast 2-250 µM, pre-incubation 10 min; Tris pH 7.5, 37 °C, 30 min. From the text:
gel-based ADP-ribosyl-ssDNA hydrolysis assay on T. aq. DarG; T.aq.

The target of a further assay is T6, PARP9 MD1 (Homo sapiens, UniProt Q8IXQ6).
T6 construct: macrodomain 1 only, CFP fusion, produced as described earlier
In words: FRET displacement of MARylated YFP-GAP. It counts as binding.

The target of a further assay is T7, SCO6735 (Streptomyces coelicolor, UniProt Q9X7P1).
T7 construct: recombinant, prepared as previously published
T7 sequence (Q9X7P1 1-161): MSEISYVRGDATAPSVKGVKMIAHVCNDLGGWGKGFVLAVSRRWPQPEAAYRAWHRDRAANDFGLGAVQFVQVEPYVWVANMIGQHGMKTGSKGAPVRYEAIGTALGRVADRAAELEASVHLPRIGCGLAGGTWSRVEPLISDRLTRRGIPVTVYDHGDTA
In words: gel-based ADP-ribosyl-ssDNA hydrolysis assay. It counts as biochemical. Particulars: 1 µM hydrolase, pranlukast 2-250 µM, pre-incubation 10 min; Tris pH 7.5, 37 °C, 30 min.

T1 sequence (O53605 1-155): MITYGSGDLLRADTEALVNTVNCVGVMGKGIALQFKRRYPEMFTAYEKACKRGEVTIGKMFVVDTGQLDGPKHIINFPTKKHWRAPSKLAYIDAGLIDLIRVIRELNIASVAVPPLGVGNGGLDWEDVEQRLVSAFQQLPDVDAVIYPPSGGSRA
T3 sequence (O53605 whole entry): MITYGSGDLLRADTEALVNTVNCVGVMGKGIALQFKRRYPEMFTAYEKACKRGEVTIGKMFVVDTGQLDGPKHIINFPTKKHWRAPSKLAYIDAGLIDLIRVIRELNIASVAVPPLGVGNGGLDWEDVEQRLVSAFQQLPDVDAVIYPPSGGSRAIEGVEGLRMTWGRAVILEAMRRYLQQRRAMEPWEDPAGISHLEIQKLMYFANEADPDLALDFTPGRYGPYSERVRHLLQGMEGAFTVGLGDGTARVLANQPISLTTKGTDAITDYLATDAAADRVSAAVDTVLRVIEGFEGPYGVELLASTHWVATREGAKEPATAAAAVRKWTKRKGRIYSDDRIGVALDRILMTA

What is called IC50 is the concentration that gives 50% inhibition. A lower IC50 goes with greater potency. Molecule `O=C(O)C(=O)c1cn(Cc2ccccc2)c2ccc(-c3ccc(OC(F)(F)F)cc3)cc12` [tiplaxtinin] displayed an IC50 in assay [1] of 5.7 µM.
Take `O=C(Nc1cccc2c(=O)cc(-c3nn[nH]n3)oc12)c1ccc(OCCCCc2ccccc2)cc1` [pranlukast]: the IC50 is about 100 µM at PARP14 MD1, about 100 µM at PARP15 MD1, 4 µM in assay [1] and about 100 µM at PARP9 MD1. The “gel-based ADP-ribosyl-ssDNA hydrolysis assay” value was “pranlukast inhibited the enzymatic activity of MtbDarG on this ADP-ribosylated ssDNA substrate” in assay [2]; “pranlukast exhibited an even higher inhibitory potency against DarG from Thermus aquaticus bacterium” on T. aq. DarG; T.aq. DarG; “DarG from Thermus aquaticus bacterium (T.aq. DarG) and SCO6735” at SCO6735.
For the molecule `Cc1cc(SCc2sc(-c3ccc(C(F)(F)F)cc3)nc2C)ccc1OCC(=O)O` [GW501516], the IC50 in assay [1] was found to be 56.5 µM.
In turn, `COc1ccc(-c2ccccc2)cc1NS(=O)(=O)c1cc(Cl)cc(Cl)c1O` [BMS303141] displayed an IC50 in assay [1] of 18.7 µM.
